What was measured:
[1] = tested on: diet induced obese (DIO) animals; assay: Fixed dose of 4-hydroxyisoleucine in diet induced obese (DIO) animals, 21 days; assay type: in vivo, C57BL/6 mice; conditions: for Significance vs controls (P; body weight and body weight gain): 2 way ANOVA, Bonferroni
Protocol: C57BL/6 mice were fed a high fat diet (60% fat) for 6 weeks. […] This regime was continued for the remaining 21 day period and the dose given was not adjusted as the mice lost body weight. This method of dosing was designed to mimic the human situation when the quantity of drug given is not adjusted with progressive body weight loss. […] Statistical analysis of the data was performed using a 2 way ANOVA followed by Bonferroni comparisons. Food intake was measured daily and then combined over a 7 day period to calculate total consumption during each week of drug administration.

[2] = tested on: normal Wistar rats fed a high fat, high sucrose diet (HFHS); assay: Prevention of weight gain in rat model of diet-induced obesity (HFHS diet), 28 days; conditions: 100 mg/kg twice daily oral; for weight gain: HFHS diet
Text: The aim of this study was to evaluate the effect of chronic administration of 4-hydroxyisoleucine (4-OH, Compound 14a) on food consumption, tissue weight, and body weight gain of normal Wistar rats fed a high fat, high sucrose diet (HFHS).
The animals were acclimated for 1 week and fed standard chow prior to the commencement of treatment, then for the 28 days of the treatment the animals were fed a high fat, high sucrose diet (HFHS). A total of 30 animals were used in the study. The animals were distributed into 3 groups each composed of 10 animals: 1 group fed HFHS with treatment, 1 untreated control group fed standard chow, and 1 untreated group fed HFHS. Animals were housed separately and food consumption was monitored daily.
For the four weeks of treatment, the test compounds were dissolved in reverse osmosis water. 4-hydroxyisoleucine (4-OH) was aliquoted and kept at 4° C. Treated animals received twice daily oral administration of 4-OH at 100 mg/kg per dose. Control animals received water twice daily.

[3] = tested on: Wistar rats fed HFHS diets; assay: Energy expenditure (oxygen consumption) by indirect calorimetry in HFHS fed rats; assay type: in vivo; conditions: 100 mg/kg oral gavage twice daily, 4 weeks, vs pair fed and HFHS control, p<0.01
Protocol: A study was conducted to determine whether the decrease in adiposity as described above was due to increased energy expenditure. For this study, Wistar rats were randomized into 3 groups (n=10/group) and fed HFHS diets. […] The second group of animals served as pair fed controls, and while not treated with drug, diet in terms of caloric intake was matched to treated animals. The third group was fed a HFHS diet ad libitum without any treatment. After a 4 week period of treatment these animals were assessed by indirect calorimetry with increased oxygen consumption used as an indicator of increased energy expenditure.

[4] = tested on: Sprague-Dawley rats; assay: 13-week oral toxicity study: body weight and lipid profiles of SD rats fed regular chow; assay type: in vivo
Protocol: Sprague-Dawley rats were received at 7-12 weeks of age (225-300 g). […] The control group received vehicle (water) alone. Body weights were recorded once prior to group assignment, and approximately one week prior to initiation of treatment. Then, body weights were recorded for all animals up to 1 day prior to dosing and weekly thereafter during the treatment period. At the end of the treatment period, a blood sample was withdrawn to measure plasma triglyceride and cholesterol levels.

[5] = tested on: dietary obese rat model; assay: Energy balance (VO2, respiratory quotient) in dietary obese rat model, prevention and reversal studies; assay type: in vivo, male Wistar rats
Protocol: The effect of 4-OH on energy balance was assessed in the dietary obese rat model. In these studies, male Wistar rats were administered a high fat/high sucrose diet (65.4% fat) and treated chronically with 4-OH. Each study consisted of 4 groups of animals. The groups studied were normal chow fed rats, rats fed a high fat/high sucrose diet and rats fed a high fat high sucrose diet and orally administered 4-OH at 100 mg/kg twice per day. These three groups had access to food ad libitum throughout the study. A fourth group fed the same number of Kcal (or similar energy intake) as the 4-OH group was also included to investigate drug effects that may occur in addition to changes in food intake. Two studies were performed: one to determine whether 4-OH could prevent the development of obesity (prevention study) and the other to determine whether 4-OH could reverse established obesity (reversal study). In the prevention study, male Wistar rats were administered the high fat/high sucrose diet for 5 weeks. During the first week of diet administration, the rats were adapted to receiving increasing doses of 4-OH. In the reversal of obesity study, the animals were first made obese by feeding the high fat/high sucrose diet for 28 days. This feeding regime continued for the duration of the study. After the period of obesity induction, the rats were also adapted to receiving increasing doses of 4-OH during a one week period. After the adaptation period, 4-OH was orally administered at a dose of 100 mg/kg twice per day for the following 4 week period in both treatment protocols. The ability of 4-OH to influence energy expenditure was determined by indirect calorimetry. On the 21st day of both the prevention and reversal studies, rats were placed into metabolic cages and energy expenditure was assessed by determining oxygen consumption. The effect of 4-OH on oxygen consumption during the day/night cycle on Day 21 of both the prevention and reversal of obesity studies is shown in FIGS. 27A and 27B. The respiratory quotient (RQ) was calculated in these studies from both the quantity of oxygen consumed and the quantity of carbon dioxide produced while the animals were present in the metabolic chambers. A RQ of 1 is indicative that the animals are burning pure carbohydrate as the energy source.

[6] = tested on: white adipocytes; assay: Release and uptake of free fatty acids by ex vivo cultured white adipocytes of treated rats; assay type: cell-based, Wistar rats
Text: A total of 60 animals were used in the study. The animals were distributed into 6 groups; 1 group was fed standard chow, 1 group was fed a high fat, high sucrose (HFHS) diet with 28 days treatment, 1 untreated control group was fed a HFHS diet, and 1 untreated group was fed a HFHS diet, but with caloric intake restricted to match the caloric intake of the 4-OH treated animals (pair-fed animals). A fifth group was fed a high fat, high sucrose (HFHS) diet with 28 days treatment and received an acute oral administration of 4-OH just prior to experimentation on Day 29 of the study, and a sixth group was fed a HFHS diet, but with caloric intake restricted to match the caloric intake of the 4-OH treated animals receiving an acute oral administration of 4-OH on Day 29 of the study (pair-fed animals). Each group was composed of 10 animals. […] Body weights were measured once weekly from week 1 to week 4 of the study. The white adipose tissues of non-treated and treated rats were collected and cultured ex vivo. After 2 hours of culture, the relative release and uptake of free fatty acids by the adipocytes was measured in absence or presence of insulin, and standardized on the basis of DNA content of the cultures.

[7] = 100, 200, 400 mg/kg/day, Day 92

C[C@@H]([C@H](C)O)[C@H](N)C(=O)O [Compound 14a, (2S,3R,4S)-4-Hydroxyisoleucine]
Significance vs controls (P; body weight and body weight gain) ([1]; 75 mg/kg, Days 7 to 21): P < 0.05 | Significance vs controls (P; body weight and body weight gain) ([1]; 100 mg/kg, Days 7 to 21): P < 0.05 | Significance vs controls (P; body weight and body weight gain) ([1]; 125 mg/kg, Days 6 to 21): P < 0.05 | body weight plateau ([1]; 150 mg/kg bid): approximately 30 gm | body weight reduction ([1]; 150 mg/kg bid): 13 gm | visual appearance of animals ([1]; 150 mg/kg bid, day 21): visually indisingishable from lean mice of the same age | Significance vs controls (P; body weight and body weight gain) ([1]; 150 mg/kg, Days 5 to 21): P < 0.05 | body weight ([1]; 50, 75, 100, 125 and 150 mg/kg bid, oral, fixed dose, 21 days): dose-dependent reduction in body weight | weight of fat tissues ([1]; end of treatment, epididymal fat (FIG. 17C)): concomitant reduction in the weight of fat tissues | food intake ([1]; highest doses, each of the 3 weeks, p<0.05): reduction in food intake at the highest doses administered | epididymal and peri-renal adipose tissue [2]: reduction of epididymal and peri-renal adipose tissue | food consumption [2]: reduction in food consumption | muscle, brown fat, and organ weight [2]: not affected | tolerability of treatment [2]: well tolerated | weight gain [2]: prevention of weight gain | weight gain ([2]; listed as 4-OH): Moderation of weight gain was observed | oxygen consumption (energy expenditure), night phase [3]: oxygen consumption was increased | average body weight at end of treatment, male rats ([4]; 200 mg/kg/day, 13 weeks): 527 g | average body weight at end of treatment, male rats ([4]; 400 mg/kg/day, 13 weeks): 520 g | reduction of triglycerides, significance ([4]; 400 mg/kg/day, male rats): statistically significant | cholesterol levels, male rats [4, 7]: reduced in a dose-dependant manner | triglyceride levels, male rats [4, 7]: reduced in a dose-dependant manner | body weight, male rats ([4]; 200 and 400 mg/kg/day once daily oral, 13 weeks, vs control): clear reduction of body weight compared to control rats | reduction of cholesterol, significance ([4]; 200 and 400 mg/kg/day, male rats): statistically significant | respiratory quotient, night phase ([5]; 100 mg/kg twice per day): not reduced | oxygen consumption per kg of body weight, night phase ([5]; 100 mg/kg twice per day, Day 21): significantly enhanced relative to both the pair fed and control groups of animals | oxygen consumption (VO2), light phase ([5]; 100 mg/kg twice per day, Day 21, prevention and reversal studies): essentially identical | respiratory quotient (fuel source), day phase ([5]; 100 mg/kg twice per day, vs pair fed animals): burn proportionally more fat than pair fed animals | VO2 expressed per rat ([5]; 100 mg/kg twice per day, vs pair fed control groups): greater | respiratory quotient (fuel source), day phase ([5]; reversal study, vs pair fed and vehicle treated animals): proportionally more fat than both the pair fed and vehicle treated animals | fatty acid uptake in presence of insulin ([6]; 2 hours of culture): not significantly different across all groups | basal fatty acid release ([6]; 2 hours of culture, absence of insulin, vs pair-fed groups, p<0.01): significant increased basal fatty acid release | insulin stimulated release of fatty acid ([6]; vs pair fed groups and HFHS control, p<0.01): significantly increased

Source: patent US20100048545A1, “Compounds and Compositions for Use in the Prevention and Treatment of Disorders of Fat Metabolism and Obesity” (INNODIA INC., priority 2006, published 2010)
